Results taken from the Kinase Knowledgebase extract (Sharma et al. 2016).

These compounds were tested against CDK2 (UniProt P24941) (assay: Enzyme Assay).

Row | IC50 | Compound
1 | < 1 µM | CN(C)c1ccc(Nc2nccc(-c3cnn4nc(N5CCOCC5)ccc34)n2)cc1
2 | < 0.1 µM | Clc1ccc(Nc2nccc(-c3cnn4ncccc34)n2)cc1
3 | < 1 µM | COc1ccc2c(-c3ccnc(NC4CC4)n3)cnn2n1
4 | < 0.1 µM | CN1CCN(c2ccc(Nc3nccc(-c4cnn5ncccc45)n3)cc2Cl)CC1
5 | < 0.1 µM | O=[N+]([O-])c1cccc(Nc2nccc(-c3cnn4ncccc34)n2)c1
6 | < 0.1 µM | FC(F)(F)c1cccc(Nc2nccc(-c3cnn4ncccc34)n2)c1
7 | < 0.1 µM | NS(=O)(=O)c1ccc(Nc2nccc(-c3cnn4ncccc34)n2)cc1
8 | < 0.1 µM | c1cc(Nc2nccc(-c3cnn4ncccc34)n2)cc(-c2cnco2)c1
9 | < 1 µM | Clc1ccccc1-c1ccc2c(-c3ccnc(NC4CC4)n3)cnn2n1
10 | < 0.1 µM | N#Cc1cccc(Nc2nccc(-c3cnn4ncccc34)n2)c1
11 | < 0.1 µM | O=C1CCCN1CCCNc1nccc(-c2cnn3ncccc23)n1
12 | < 0.1 µM | Cc1cc(Nc2nccc(-c3cnn4ncccc34)n2)ccc1N1CCN(C)CC1
